Laboratory results reported in publication PMC9067983, “Identification of highly selective type II kinase inhibitors with chiral peptidomimetic tails” (Journal of Enzyme Inhibition and Medicinal Chemistry, 2022).
Where a SMILES comes first, the peptide text is derived from it. [ ]: non-standard residue; d: D form. The star is where a group is joined. X1 = Cc1ccc(Nc2ncc3c(n2)N(C)C(=O)N(c2cc(C(=O)*)ccc2C)C3)cn1; Aib = CC(C)(N)C(=O)O

How the values were obtained:
Assay in all cases: kinase selectivity profiling
Format in all cases: biochemical
Conditions in all cases: 10µM ATP, read-out: % inhibition (relative to DMSO)
[1] = target: T1, BRSK1 (Homo sapiens, UniProt Q8TDC3)
T1 construct: purchased Reaction Biology Corp
Protocol: (§1) Full panel kinase profiling and kinase IC50 measurement were performed by using Reaction Biology Corp. (San Diego, USA).

[2] = target: T2, Lyn (Homo sapiens, UniProt P07948)
T2 construct: purchased Reaction Biology Corp
Protocol: as §1

[3] = target: T3, ALK5/TGFBR1 (Homo sapiens, UniProt P36897)
T3 construct: purchased Reaction Biology Corp
Protocol: as §1

[4] = target: T4, CDK4/cyclin D3 (Homo sapiens, UniProt P11802)
T4 construct: purchased Reaction Biology Corp
Protocol: as §1

[5] = target: T5, CSK (Homo sapiens, UniProt P41240)
T5 construct: purchased Reaction Biology Corp
Protocol: as §1

[6] = target: T6, HIPK1 (Homo sapiens, UniProt Q86Z02)
T6 construct: purchased Reaction Biology Corp
Protocol: as §1

[7] = target: T7, MSK2/RPS6KA4 (Homo sapiens, UniProt O75676)
T7 construct: purchased Reaction Biology Corp
Protocol: as §1

[8] = target: T8, ERN2/IRE2 (Homo sapiens, UniProt Q76MJ5)
T8 construct: purchased Reaction Biology Corp
Protocol: as §1

[9] = target: T9, FLT4/VEGFR3 (Homo sapiens, UniProt P35916)
T9 construct: purchased Reaction Biology Corp
Protocol: as §1

[10] = target: T10, CDK4/cyclin D1 (Homo sapiens, UniProt P11802)
T10 construct: purchased Reaction Biology Corp
Protocol: as §1

[11] = target: T11, VRK2 (Homo sapiens, UniProt Q86Y07)
T11 construct: purchased Reaction Biology Corp
Protocol: as §1

[12] = target: T12, EPHB4 (Homo sapiens, UniProt P54760)
T12 construct: purchased Reaction Biology Corp
Protocol: as §1

[13] = target: T13, OSR1/OXSR1 (Homo sapiens, UniProt O95747)
T13 construct: purchased Reaction Biology Corp
Protocol: as §1

[14] = target: T14, CLK4 (Homo sapiens, UniProt Q9HAZ1)
T14 construct: purchased Reaction Biology Corp
Protocol: as §1

[15] = target: T15, ROCK2 (Homo sapiens, UniProt O75116)
T15 construct: purchased Reaction Biology Corp
Protocol: as §1

[16] = target: T16, SGK1 (Homo sapiens, UniProt O00141)
T16 construct: purchased Reaction Biology Corp
Protocol: as §1

[17] = target: T17, ZIPK/DAPK3 (Homo sapiens, UniProt O43293)
T17 construct: purchased Reaction Biology Corp
Protocol: as §1

[18] = target: T18, GCK/MAP4K2 (Homo sapiens, UniProt Q12851)
T18 construct: purchased Reaction Biology Corp
Protocol: as §1

[19] = target: T19, MRCKb/CDC42BPB (Homo sapiens, UniProt Q9Y5S2)
T19 construct: purchased Reaction Biology Corp
Protocol: as §1

[20] = target: T20, TRKC (Homo sapiens, UniProt Q16288)
T20 construct: purchased Reaction Biology Corp
Protocol: as §1

[21] = target: T21, CDK5/P25 (Homo sapiens, UniProt Q00535)
T21 construct: purchased Reaction Biology Corp
Protocol: as §1

[22] = target: T22, MEK1 (Homo sapiens, UniProt Q02750)
T22 construct: purchased Reaction Biology Corp
Protocol: as §1

[23] = target: T23, MLK2/MAP3K10 (Homo sapiens, UniProt Q02779)
T23 construct: purchased Reaction Biology Corp
Protocol: as §1

[24] = target: T24, PAK5 (Homo sapiens, UniProt Q9P286)
T24 construct: purchased Reaction Biology Corp
Protocol: as §1

[25] = target: T25, NEK5 (Homo sapiens, UniProt Q6P3R8)
T25 construct: purchased Reaction Biology Corp
Protocol: as §1

[26] = target: T26, FYN (Homo sapiens, UniProt P06241)
T26 construct: purchased Reaction Biology Corp
Protocol: as §1

[27] = target: T27, IRR/INSRR (Homo sapiens, UniProt P14616)
T27 construct: purchased Reaction Biology Corp
Protocol: as §1

[28] = target: T28, PDGFRa (Homo sapiens, UniProt P16234)
T28 construct: purchased Reaction Biology Corp
Protocol: as §1

[29] = target: T29, EPHA6 (Homo sapiens, UniProt Q9UF33)
T29 construct: purchased Reaction Biology Corp
Protocol: as §1

[30] = target: T30, CDK17/cyclin Y (PCTK2) (Homo sapiens, UniProt Q00537)
T30 construct: purchased Reaction Biology Corp
Protocol: as §1

[31] = target: T31, JAK2 (Homo sapiens, UniProt O60674)
T31 construct: purchased Reaction Biology Corp
Protocol: as §1

[32] = target: T32, AKT2 (Homo sapiens, UniProt P31751)
T32 construct: purchased Reaction Biology Corp
Protocol: as §1

[33] = target: T33, EPHA2 (Homo sapiens, UniProt P29317)
T33 construct: purchased Reaction Biology Corp
Protocol: as §1

[34] = target: T34, LRRK2 (Homo sapiens, UniProt Q5S007)
T34 construct: purchased Reaction Biology Corp
Protocol: as §1

[35] = target: T35, TTBK2 (Homo sapiens, UniProt Q6IQ55)
T35 construct: purchased Reaction Biology Corp
Protocol: as §1

[36] = target: T36, CLK3 (Homo sapiens, UniProt P49761)
T36 construct: purchased Reaction Biology Corp
Protocol: as §1

[37] = target: T37, PKCepsilon (Homo sapiens, UniProt Q02156)
T37 construct: purchased Reaction Biology Corp
Protocol: as §1

[38] = target: T38, ERBB2/HER2 (Homo sapiens, UniProt P04626)
T38 construct: purchased Reaction Biology Corp
Protocol: as §1

[39] = target: T39, ERN1/IRE1 (Homo sapiens, UniProt O75460)
T39 construct: purchased Reaction Biology Corp
Protocol: as §1

[40] = target: T40, PKN2/PRK2 (Homo sapiens, UniProt Q16513)
T40 construct: purchased Reaction Biology Corp
Protocol: as §1

[41] = target: T41, RIPK3 (Homo sapiens, UniProt Q9Y572)
T41 construct: purchased Reaction Biology Corp
Protocol: as §1

[42] = target: T42, IGF1R (Homo sapiens, UniProt P08069)
T42 construct: purchased Reaction Biology Corp
Protocol: as §1

T15 sequence (O75116 whole entry): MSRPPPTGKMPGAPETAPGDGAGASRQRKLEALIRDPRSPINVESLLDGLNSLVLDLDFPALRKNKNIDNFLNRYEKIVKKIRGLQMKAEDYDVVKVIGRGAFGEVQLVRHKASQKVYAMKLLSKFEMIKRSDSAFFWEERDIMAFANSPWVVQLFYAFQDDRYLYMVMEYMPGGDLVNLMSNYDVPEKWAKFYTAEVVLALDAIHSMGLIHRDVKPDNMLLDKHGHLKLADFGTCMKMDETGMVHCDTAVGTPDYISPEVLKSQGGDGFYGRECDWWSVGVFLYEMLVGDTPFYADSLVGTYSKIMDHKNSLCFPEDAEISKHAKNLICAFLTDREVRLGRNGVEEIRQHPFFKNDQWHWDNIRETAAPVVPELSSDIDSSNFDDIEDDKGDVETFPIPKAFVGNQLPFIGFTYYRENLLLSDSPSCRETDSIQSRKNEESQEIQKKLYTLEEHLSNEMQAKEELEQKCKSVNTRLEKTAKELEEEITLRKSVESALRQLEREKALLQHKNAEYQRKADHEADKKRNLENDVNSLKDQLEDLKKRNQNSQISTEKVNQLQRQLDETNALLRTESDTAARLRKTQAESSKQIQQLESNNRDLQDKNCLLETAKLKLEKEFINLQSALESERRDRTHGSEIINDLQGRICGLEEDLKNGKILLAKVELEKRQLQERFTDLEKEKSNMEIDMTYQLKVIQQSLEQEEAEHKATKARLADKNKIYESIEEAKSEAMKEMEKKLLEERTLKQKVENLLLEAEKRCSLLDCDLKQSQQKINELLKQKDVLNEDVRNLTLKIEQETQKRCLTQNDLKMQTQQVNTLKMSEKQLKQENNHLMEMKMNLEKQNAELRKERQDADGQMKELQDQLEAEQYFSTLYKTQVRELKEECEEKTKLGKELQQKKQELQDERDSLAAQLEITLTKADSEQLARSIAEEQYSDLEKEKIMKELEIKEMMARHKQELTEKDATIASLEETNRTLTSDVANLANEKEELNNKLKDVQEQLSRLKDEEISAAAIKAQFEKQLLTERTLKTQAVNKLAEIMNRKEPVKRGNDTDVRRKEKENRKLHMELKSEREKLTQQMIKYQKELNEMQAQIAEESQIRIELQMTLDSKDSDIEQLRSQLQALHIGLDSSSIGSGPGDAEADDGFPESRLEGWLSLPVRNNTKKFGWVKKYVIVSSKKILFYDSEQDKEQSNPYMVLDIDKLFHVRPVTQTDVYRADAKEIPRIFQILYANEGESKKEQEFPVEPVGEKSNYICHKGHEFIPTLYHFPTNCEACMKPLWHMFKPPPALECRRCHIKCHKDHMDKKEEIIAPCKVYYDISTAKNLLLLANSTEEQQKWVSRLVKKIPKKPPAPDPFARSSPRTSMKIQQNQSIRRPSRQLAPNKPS
T11 sequence (Q86Y07 whole entry): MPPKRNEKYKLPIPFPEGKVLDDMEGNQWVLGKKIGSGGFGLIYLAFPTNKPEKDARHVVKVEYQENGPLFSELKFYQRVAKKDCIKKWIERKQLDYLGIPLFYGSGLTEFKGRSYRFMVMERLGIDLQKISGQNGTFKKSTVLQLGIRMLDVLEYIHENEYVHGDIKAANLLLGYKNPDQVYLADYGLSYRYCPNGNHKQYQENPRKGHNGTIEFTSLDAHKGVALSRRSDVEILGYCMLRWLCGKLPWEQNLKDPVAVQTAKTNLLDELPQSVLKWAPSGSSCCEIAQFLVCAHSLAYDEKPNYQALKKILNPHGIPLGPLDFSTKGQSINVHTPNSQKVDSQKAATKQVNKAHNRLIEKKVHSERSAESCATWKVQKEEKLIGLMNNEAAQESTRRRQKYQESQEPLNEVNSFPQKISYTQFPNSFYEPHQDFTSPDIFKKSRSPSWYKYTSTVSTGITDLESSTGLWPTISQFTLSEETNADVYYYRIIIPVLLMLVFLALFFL
T28 sequence (P16234 24-1089): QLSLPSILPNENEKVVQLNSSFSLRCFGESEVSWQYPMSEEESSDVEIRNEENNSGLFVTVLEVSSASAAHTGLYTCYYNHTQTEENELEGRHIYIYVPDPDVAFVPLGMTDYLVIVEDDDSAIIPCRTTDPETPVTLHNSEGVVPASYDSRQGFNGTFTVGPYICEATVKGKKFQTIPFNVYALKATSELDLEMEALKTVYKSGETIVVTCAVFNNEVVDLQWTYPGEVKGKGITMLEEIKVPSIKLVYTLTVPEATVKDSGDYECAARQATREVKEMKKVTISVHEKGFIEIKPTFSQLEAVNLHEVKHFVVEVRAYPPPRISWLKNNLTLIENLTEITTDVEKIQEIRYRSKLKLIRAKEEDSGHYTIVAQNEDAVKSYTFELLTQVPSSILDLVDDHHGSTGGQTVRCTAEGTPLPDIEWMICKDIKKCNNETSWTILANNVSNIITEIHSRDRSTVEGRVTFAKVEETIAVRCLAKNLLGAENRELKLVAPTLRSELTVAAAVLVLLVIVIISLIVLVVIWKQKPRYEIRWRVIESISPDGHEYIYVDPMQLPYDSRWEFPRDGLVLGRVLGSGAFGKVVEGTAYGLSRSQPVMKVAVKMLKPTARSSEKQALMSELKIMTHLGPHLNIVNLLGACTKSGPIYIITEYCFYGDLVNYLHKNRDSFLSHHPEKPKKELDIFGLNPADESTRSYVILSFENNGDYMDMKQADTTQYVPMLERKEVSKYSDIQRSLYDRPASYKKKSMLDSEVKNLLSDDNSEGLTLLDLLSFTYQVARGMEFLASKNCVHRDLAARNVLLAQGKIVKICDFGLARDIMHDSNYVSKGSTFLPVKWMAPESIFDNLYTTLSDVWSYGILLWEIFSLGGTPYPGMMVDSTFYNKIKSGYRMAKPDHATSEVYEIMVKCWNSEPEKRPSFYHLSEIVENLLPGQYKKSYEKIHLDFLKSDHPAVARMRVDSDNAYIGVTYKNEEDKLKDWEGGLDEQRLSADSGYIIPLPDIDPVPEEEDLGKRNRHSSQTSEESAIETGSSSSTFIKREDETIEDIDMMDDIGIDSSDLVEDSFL
T18 sequence (Q12851 whole entry): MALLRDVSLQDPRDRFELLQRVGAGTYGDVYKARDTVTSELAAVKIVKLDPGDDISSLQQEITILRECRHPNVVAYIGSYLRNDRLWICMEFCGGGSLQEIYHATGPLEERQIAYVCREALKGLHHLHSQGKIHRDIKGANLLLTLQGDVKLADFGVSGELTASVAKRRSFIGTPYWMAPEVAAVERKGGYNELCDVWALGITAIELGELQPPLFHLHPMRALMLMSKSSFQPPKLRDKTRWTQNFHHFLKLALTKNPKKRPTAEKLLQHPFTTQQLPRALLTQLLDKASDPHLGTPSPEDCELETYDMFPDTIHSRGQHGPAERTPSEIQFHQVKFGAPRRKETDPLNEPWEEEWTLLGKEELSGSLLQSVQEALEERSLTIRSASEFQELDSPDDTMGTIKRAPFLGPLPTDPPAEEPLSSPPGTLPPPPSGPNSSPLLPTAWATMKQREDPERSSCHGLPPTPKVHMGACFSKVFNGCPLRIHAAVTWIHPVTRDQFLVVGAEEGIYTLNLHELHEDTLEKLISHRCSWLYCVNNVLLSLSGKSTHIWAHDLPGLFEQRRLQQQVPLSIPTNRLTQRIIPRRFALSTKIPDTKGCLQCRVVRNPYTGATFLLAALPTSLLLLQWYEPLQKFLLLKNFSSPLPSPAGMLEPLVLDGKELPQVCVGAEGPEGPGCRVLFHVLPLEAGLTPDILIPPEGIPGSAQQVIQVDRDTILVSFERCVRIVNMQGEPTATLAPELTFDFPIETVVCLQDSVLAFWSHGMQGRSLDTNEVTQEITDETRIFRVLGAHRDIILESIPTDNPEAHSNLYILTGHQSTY
T25 sequence (Q6P3R8 whole entry): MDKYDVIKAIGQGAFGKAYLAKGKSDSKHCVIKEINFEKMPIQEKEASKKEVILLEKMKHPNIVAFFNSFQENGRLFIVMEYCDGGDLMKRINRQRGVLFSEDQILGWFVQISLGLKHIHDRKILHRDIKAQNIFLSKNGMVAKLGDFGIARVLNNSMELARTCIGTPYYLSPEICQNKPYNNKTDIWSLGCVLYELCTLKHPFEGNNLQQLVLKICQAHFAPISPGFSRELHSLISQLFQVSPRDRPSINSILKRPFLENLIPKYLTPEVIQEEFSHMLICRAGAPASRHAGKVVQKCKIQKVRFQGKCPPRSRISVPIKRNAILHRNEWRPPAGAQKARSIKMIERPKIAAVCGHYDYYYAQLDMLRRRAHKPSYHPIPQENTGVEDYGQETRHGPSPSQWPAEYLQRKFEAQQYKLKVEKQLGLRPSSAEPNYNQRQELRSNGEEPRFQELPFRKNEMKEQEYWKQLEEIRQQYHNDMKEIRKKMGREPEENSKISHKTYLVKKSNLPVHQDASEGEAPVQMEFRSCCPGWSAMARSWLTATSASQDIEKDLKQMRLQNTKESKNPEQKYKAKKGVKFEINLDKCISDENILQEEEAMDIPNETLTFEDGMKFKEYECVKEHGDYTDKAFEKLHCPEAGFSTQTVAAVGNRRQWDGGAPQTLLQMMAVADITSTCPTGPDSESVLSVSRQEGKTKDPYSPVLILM
T26 sequence (P06241 whole entry): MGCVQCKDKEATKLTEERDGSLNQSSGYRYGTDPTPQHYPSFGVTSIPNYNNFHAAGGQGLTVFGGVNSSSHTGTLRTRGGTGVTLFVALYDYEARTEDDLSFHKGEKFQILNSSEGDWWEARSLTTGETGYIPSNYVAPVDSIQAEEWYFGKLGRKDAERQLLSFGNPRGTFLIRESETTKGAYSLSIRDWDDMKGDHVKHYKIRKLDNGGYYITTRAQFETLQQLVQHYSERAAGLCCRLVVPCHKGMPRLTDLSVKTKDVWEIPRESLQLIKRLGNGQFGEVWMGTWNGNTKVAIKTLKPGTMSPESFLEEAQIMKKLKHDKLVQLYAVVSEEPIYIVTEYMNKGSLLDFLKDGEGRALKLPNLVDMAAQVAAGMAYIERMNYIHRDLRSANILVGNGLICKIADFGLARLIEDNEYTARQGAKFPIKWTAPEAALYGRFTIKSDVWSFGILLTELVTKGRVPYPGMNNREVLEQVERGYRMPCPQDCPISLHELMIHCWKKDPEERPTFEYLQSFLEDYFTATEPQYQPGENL

For `Cc1ccc(Nc2ncc3c(n2)N(C)C(=O)N(c2cc(C(=O)N[C@H](C(=O)N4CCC[C@H]4C(=O)NC(C)(C)C(=O)N[C@@H](CC(C)C)C(=O)N(C)C)C(C)C)ccc2C)C3)cn1` [7a, (S)-N-(1-(((S)-1-(dimethylamino)-4-methyl-1-oxopentan-2-yl)amino)-2-methyl-1-oxopropan-2-yl)-1-((4-methyl-3-(1-methyl-7-((6-methylpyridin-3-yl)amino)-2-oxo-1,4-dihydropyrimido[4,5-d]pyrimidin-3(2H)-yl)benzoyl)-L-valyl)pyrrolidine-2-carboxamide] (X1-VP[Aib]L-NMe2), the inhibition at 1 µM [1] was 2%, the inhibition at 1 µM [2] was 73% and the inhibition at 1 µM [3] was 0%. For the same molecule, the inhibition at 1 µM [4] was 3%, the inhibition at 1 µM [5] was 44% and the inhibition at 1 µM [6] was 0%. For the same molecule, the inhibition at 1 µM [7] was 9%, the inhibition at 1 µM [8] was 2% and the inhibition at 1 µM [9] was 20%. The inhibition at 1 µM [10] was 0%, the inhibition at 1 µM [11] was 0% and the inhibition at 1 µM [12] was 16%. It also gave an inhibition at 1 µM [13] of 6%, an inhibition at 1 µM [14] of 0% and an inhibition at 1 µM [15] of 10%. For the same molecule, the inhibition at 1 µM [16] was 0%, the inhibition at 1 µM [17] was 6% and the inhibition at 1 µM [18] was 13%. The inhibition at 1 µM [19] was 0%, the inhibition at 1 µM [20] was 21% and the inhibition at 1 µM [21] was 0%. It also gave an inhibition at 1 µM [22] of 8%, an inhibition at 1 µM [23] of 16% and an inhibition at 1 µM [24] of 9%. It also gave an inhibition at 1 µM [25] of 0%, an inhibition at 1 µM [26] of 21% and an inhibition at 1 µM [27] of 5%. The inhibition at 1 µM [28] was 31%, the inhibition at 1 µM [29] was 5% and the inhibition at 1 µM [30] was 7%. The inhibition at 1 µM [31] was 11%, the inhibition at 1 µM [32] was 0% and the inhibition at 1 µM [33] was 21%. For the same molecule, the inhibition at 1 µM [34] was 0%, the inhibition at 1 µM [35] was 7% and the inhibition at 1 µM [36] was 17%. For the same molecule, the inhibition at 1 µM [37] was 1%, the inhibition at 1 µM [38] was 10% and the inhibition at 1 µM [39] was 5%. It also gave an inhibition at 1 µM [40] of 0%, an inhibition at 1 µM [41] of 0% and an inhibition at 1 µM [42] of 0%.
